# According to patent US20250290117A1, “MOLECULAR PHENOTYPIC ANTIMICROBIAL SUSCEPTIBILITY TESTING” (priority 2024, published 2025):
# Legend:
# Acinetobacter baumannii = experiment: Traditional culture-based antimicrobial susceptibility test; type: cell-based
# Text: Table 2 illustrates the results of an example antimicrobial agent susceptibility test of the current application versus a traditional culture-based antimicrobial agent susceptibility test for […], in accordance with one or more embodiments of the disclosure. This specimen underwent extraction and/or DNA purification prior to PCR. As in Table 1, the results of the test of the current application are similar to the results from the traditional test.
# Result Reporting to Healthcare Providers. The results from the antimicrobial exposure are reported to the ordering healthcare provider. This information can be utilized by the healthcare provider when selecting an antimicrobial regimen for their individual patient based on these individual specimen results and patient specific factors. […] The current standard of care for antimicrobial susceptibility testing involves the growth, isolation, and exposure of pathogens to antimicrobials. This traditional culture and sensitivity process can take multiple days to obtain results, limiting the ability of healthcare providers to receive timely results to make actionable changes in patient care or management. Healthcare providers desire a method to obtain antimicrobial susceptibility results with quicker turn-around-time. This application discloses a molecular-based phenotypic antimicrobial susceptibility method which involves pathogen exposure to a panel of antimicrobial agents at their specified minimum inhibitory concentration breakpoints for sensitivity. This method allows for more timely antimicrobial susceptibility results.
# S. aureus = experiment: Molecular phenotypic antimicrobial susceptibility test with direct PCR (no extraction DNA purification step); type: cell-based, Staphylococcus aureus; settings: for Ct at Sensitive Breakpoint: S. aureus isolate NR-46412 HIP13170, Ct at control (average) 18.824; for Molecular Antimicrobial Susceptibility Result: S. aureus isolate NR-46412 HIP13170, at sensitive breakpoint
# Description: Detection of Molecular Phenotypic Antimicrobial Susceptibility. Disclosed herein are the methods for the detection of phenotypic antimicrobial susceptibility via molecular methods. The present invention describes how a specimen 100 with a known microbial load is incubated and then exposed to a panel of antimicrobial agents to determine sensitivity (prevention of growth) or resistance (allowance of growth) to the specific antimicrobial agents tested utilizing molecular methods.
# Sample Collection. Specimens 100 are collected from patients using sterile collection processes that are employed in routine clinical care. Specimens are transported to the testing facility in boric acid preservative.
# Preparation of the Specimens for Testing. […] The process for pathogen isolation includes steps of harvesting the pathogen (e.g., via centrifugation), isolating pathogen DNA via a DNA isolation and/or purification kit, and performing PCR on the pathogen DNA via PCR components (e.g., primers, enzymes, buffers) as would be known to the skilled artisan. […] This aliquot is used for antimicrobial susceptibility testing if indicated based on the pathogen detection results. […] Specimens 100 with lower pathogen loads could also be utilized in the antibiotic susceptibility phase of testing with or without a longer incubation period.
# Preparation of Antimicrobial Susceptibility Testing Plates. Antimicrobial solutions are prepared at known concentrations. The specific antimicrobials and their concentrations are selected based on the pathogen of interest and the described antimicrobial resistance breakpoints for that specimen pathogen and antimicrobial combination. These antimicrobials have been selected based on those commonly utilized by healthcare providers in routine clinical care for the specific type of suspected infection. The number and types of antimicrobials utilized can be customized based on the infection source, pathogen detected, patient-specific factors such as allergies or other health conditions (e.g., chronic kidney disease or concurrent medication use), or healthcare provider preferences such as antimicrobial availability or cost.
# The antimicrobial solutions are prepared in liquid culture media (such as Muller Hinton Broth) to achieve the desired antimicrobial concentration and are then stored at −80° C. until use. For a given specimen, each antimicrobial is tested at a single or multiple antimicrobial concentration(s) which is its established breakpoints for sensitivity. The antimicrobial solutions are prepared and plated out for each specific pathogen. […] This allows for evaluation of pathogen load when no antimicrobial is present.
# Specimen Exposure to Antimicrobial Agents. The 1 mL aliquot of the specimen 100 previously mixed with culture media and incubated is obtained. Using optical density measurements as a guide, the specimen 100 is diluted to 0.5 McFarland.
# Antimicrobial exposure plates are typically placed into an incubator for 12-16 hours.
# Nucleic Acid Amplification of Antimicrobial Agent Exposed Pathogens. The antimicrobial exposure plate is removed after the period of incubation. The specimen then undergoes a purification or lysis step. For example, the specimen may undergo a purification step (e.g., magnetic bead-based or other separation protocol to isolate genetic material). In another example, the specimen may undergo a cell lysis step. For example, buffer (e.g., lysis buffer) may be added and incubated in the thermal cycler for preparation for direct PCR. Next, the specimen may undergo a polymerase chain reaction (PCR) testing protocol, whereby a semi-quantitative PCR method is utilized. This may be completed either with or without a specific extraction protocol step. The pathogens can be individually targeted and detected, or a universal genetic sequence can be utilized to detect the antimicrobial susceptibility of the specimen as a whole.
# [1] = tested on: pathogens of clinical samples; experiment: Molecular phenotypic antimicrobial susceptibility test of clinical samples, direct PCR without a separate DNA purification step (Table 6); type: cell-based
# Procedure, shortened: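 Patient specimens in boric acid were grown in culture medium, adjusted to 0.5 McFarland by optical density, then incubated 12-16 hours with antimicrobials in Mueller Hinton Broth at breakpoint concentrations. Growth was read by semi-quantitative PCR, alongside a no-antimicrobial well for pathogen load.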
# [2] = S. aureus, clinical sample of r85-r92
# [3] = S. aureus, clinical sample of r85-r92, Ct control avg 20.309
# [4] = E. coli, clinical sample of r10-r24
# [5] = E. coli, clinical sample of r10-r24, Ct control avg 12.97
# [6] = E. coli, clinical sample of r158-r172
# [7] = E. coli, clinical sample of r158-r172, Ct control avg 12.894
# [8] = K. aerogenes, clinical sample of r136-r150
# [9] = K. aerogenes, clinical sample of r136-r150, Ct control avg 13.854
# [10] = K. pneumoniae, clinical sample of r121-r135
# [11] = K. pneumoniae, clinical sample of r121-r135, Ct control avg […]
# [12] = M. morganii, clinical sample of r55-r69
# [13] = M. morganii, clinical sample of r55-r69, Ct control avg 12.09
# [14] = M. morganii, clinical sample of r70-r84
# [15] = M. morganii, clinical sample of r70-r84, Ct control avg 11.677
# [16] = P. mirabilis, clinical sample of r25-r39
# [17] = P. mirabilis, clinical sample of r25-r39, Ct control avg 11.801
# [18] = P. mirabilis, clinical sample of r40-r54
# [19] = P. mirabilis, clinical sample of r40-r54, Ct control avg 10.06
Compound,Traditional Culture Result (Acinetobacter baumannii; A. baumannii isolate 1),Traditional Culture Result (Acinetobacter baumannii; A. baumannii isolate 2),Traditional Culture Result (Acinetobacter baumannii; A. baumannii isolate 3),Traditional Culture Result (Acinetobacter baumannii; A. baumannii isolate 4),Traditional Culture Result (Acinetobacter baumannii; A. baumannii isolate 5),Ct at Sensitive Breakpoint (S. aureus),Molecular Antimicrobial Susceptibility Result (S. aureus),"Molecular Antibiotic Susceptibility Result [1, 2]","Ct [1, 3]","Molecular Antibiotic Susceptibility Result [1, 4]","Ct [1, 5]","Molecular Antibiotic Susceptibility Result [1, 6]","Ct [1, 7]","Molecular Antibiotic Susceptibility Result [1, 8]","Ct [1, 9]","Molecular Antibiotic Susceptibility Result [1, 10]","Ct [1, 11]","Molecular Antibiotic Susceptibility Result [1, 12]","Ct [1, 13]","Molecular Antibiotic Susceptibility Result [1, 14]",other results
O=C(O)c1cn(C2CC2)c2cc(N3CCNCC3)c(F)cc2c1=O [Ciprofloxacin],Resistant,Resistant,Resistant,Resistant,Resistant,18.586,Resistant,,,,,,,,,,,,,,
CN[C@H](CC(C)C)C(=O)N[C@H]1C(=O)N[C@@H](CC(N)=O)C(=O)N[C@H]2C(=O)N[C@H]3C(=O)N[C@H](C(=O)N[C@H](C(=O)O)c4cc(O)cc(O)c4-c4cc3ccc4O)[C@H](O)c3ccc(c(Cl)c3)Oc3cc2cc(c3O[C@@H]2O[C@H](CO)[C@@H](O)[C@H](O)[C@H]2O[C@H]2C[C@](C)(N)[C@H](O)[C@H](C)O2)Oc2ccc(cc2Cl)[C@H]1O [Vancomycin],,,,,,17.078,Resistant,Resistant,21.258,,,,,,,,,,,,"Molecular Antibiotic Susceptibility Result ([1]; E. faecalis, clinical sample of r93-r99): Sensitive (Antimicrobial wells with pathogen load detected below the control wells (typically >2 cycle thresholds later) may be reported as Sensitive); Ct ([1]; E. faecalis, clinical sample of r93-r99, Ct control avg 22.011): 30.062; Molecular Antibiotic Susceptibility Result ([1]; E. faecalis, clinical sample of r100-r106): sensitive; Ct ([1]; E. faecalis, clinical sample of r100-r106, Ct control avg 21.027): 35.563; Molecular Antibiotic Susceptibility Result ([1]; E. faecalis, clinical sample of r107-r113): sensitive; Ct ([1]; E. faecalis, clinical sample of r107-r113, Ct control avg 20.529): 29.81; Molecular Antibiotic Susceptibility Result ([1]; E. faecalis, clinical sample of r114-r120): Sensitive (Antimicrobial wells with pathogen load detected below the control wells (typically >2 cycle thresholds later) may be reported as Sensitive); Molecular Antibiotic Susceptibility Result ([1]; E. faecalis, clinical sample of r151-r157): Sensitive (Antimicrobial wells with pathogen load detected below the control wells (typically >2 cycle thresholds later) may be reported as Sensitive); Ct ([1]; E. faecalis, clinical sample of r151-r157, Ct control avg 18.551): 35.428"
Gentamicin,,,,Sensitive,Sensitive,,Resistant,Sensitive (Antimicrobial wells with pathogen load detected below the control wells (typically >2 cycle thresholds later) may be reported as Sensitive),31.422,Sensitive (Antimicrobial wells with pathogen load detected below the control wells (typically >2 cycle thresholds later) may be reported as Sensitive),23.559,Sensitive (Antimicrobial wells with pathogen load detected below the control wells (typically >2 cycle thresholds later) may be reported as Sensitive),28.667,Sensitive (Antimicrobial wells with pathogen load detected below the control wells (typically >2 cycle thresholds later) may be reported as Sensitive),31.347,Sensitive (Antimicrobial wells with pathogen load detected below the control wells (typically >2 cycle thresholds later) may be reported as Sensitive),23.5,Sensitive (Antimicrobial wells with pathogen load detected below the control wells (typically >2 cycle thresholds later) may be reported as Sensitive),32.648,Sensitive (Antimicrobial wells with pathogen load detected below the control wells (typically >2 cycle thresholds later) may be reported as Sensitive),"Ct [1, 15]: 30.206; Molecular Antibiotic Susceptibility Result [1, 16]: Sensitive (Antimicrobial wells with pathogen load detected below the control wells (typically >2 cycle thresholds later) may be reported as Sensitive); Ct [1, 17]: 22.67; Molecular Antibiotic Susceptibility Result [1, 18]: Sensitive (Antimicrobial wells with pathogen load detected below the control wells (typically >2 cycle thresholds later) may be reported as Sensitive); Ct [1, 19]: 30.321"
Trimethoprim/Sulfamethoxazole [TMP/SMX],Sensitive,Sensitive,Sensitive,Sensitive,Sensitive,28.63,Sensitive (Antimicrobial wells with pathogen load detected below the control wells (typically >2 cycle thresholds later) may be reported as Sensitive),Sensitive (Antimicrobial wells with pathogen load detected below the control wells (typically >2 cycle thresholds later) may be reported as Sensitive),28.965,Sensitive (Antimicrobial wells with pathogen load detected below the control wells (typically >2 cycle thresholds later) may be reported as Sensitive),24.066,Sensitive (Antimicrobial wells with pathogen load detected below the control wells (typically >2 cycle thresholds later) may be reported as Sensitive),28.739,Sensitive (Antimicrobial wells with pathogen load detected below the control wells (typically >2 cycle thresholds later) may be reported as Sensitive),30.511,Sensitive (Antimicrobial wells with pathogen load detected below the control wells (typically >2 cycle thresholds later) may be reported as Sensitive),29.719,Sensitive (Antimicrobial wells with pathogen load detected below the control wells (typically >2 cycle thresholds later) may be reported as Sensitive),22.916,Sensitive (Antimicrobial wells with pathogen load detected below the control wells (typically >2 cycle thresholds later) may be reported as Sensitive),"Ct [1, 15]: 22.281; Molecular Antibiotic Susceptibility Result [1, 16]: Sensitive (Antimicrobial wells with pathogen load detected below the control wells (typically >2 cycle thresholds later) may be reported as Sensitive); Ct [1, 17]: 23.476; Molecular Antibiotic Susceptibility Result [1, 18]: Sensitive (Antimicrobial wells with pathogen load detected below the control wells (typically >2 cycle thresholds later) may be reported as Sensitive); Ct [1, 19]: 25.628"
